Common to all, as to format: cell-based
Data set [1] deals with Candida utilis ATCC 42416. Briefly: Antimicrobial activity (log CFU/Ml) over pH condition. The conditions noted are these: 30° C., 24 hrs. Here is the method:
Antimicrobial activity of the garlic extract heated at 121° C. for 120 min in Example 1 was measured for Candida utilis ATCC 42416, under various pH conditions. […] For a control, YMPGB medium without comprising any preservative was used. Candida utilis ATCC 42416 used in this Test Example was kindly provided from Dr. Henry P. Fleming at the Food Fermentation Laboratory of the North Carolina State University in USA. […] Then, Candida utilis ATCC 42416 was inoculated with an initial number of 2.1-2.3×10^5 CFU/mL and subsequently incubated at 30° C. for 24 hrs. After completing the incubation, the value of log CFU/Ml was measured by using the viable count method described above.

Data set [2] relates to Candida utilis ATCC 42416. Briefly: Antimicrobial activity (MIC) over storage time at 37° C. Conditions: stored at 37° C., 30 days, heated extract: 121° C. for 120 min. Here is the method: (§1) In order to compare the antibacterial activity and the antifungal activity of the garlic extract of Example 1 prepared by heating at 121° C., according to the heating time, MIC (minimum inhibitory concentration) was measured for the samples of the heated garlic extract. The MIC represents minimum concentration of material to inhibit the growth of certain type of microorganism. It is understood that the lower the MIC of a material, the higher the antimicrobial activity of the material. The inhibition of microbial growth was measured by viable count method based on Spiral Autoplate System of Spiral Biotech Inc. Three separate experiments were carried out for each sample and the highest value was taken as the MIC of the sample.
Antimicrobial activity of the garlic extract prepared by heating at 121° C. for 120 min in Example 1, the fresh garlic extract and the AITC solution was measured for Candida utilis ATCC 42416, over storage time. Candida utilis ATCC 42416 used in this Test Example was kindly provided from Dr. Henry P. Fleming at the Food Fermentation Laboratory of the North Carolina State University in USA. […] From the first day to the 30th day of the storage, the MIC was measured everyday or every two days using the viable count method described in Test Example 1.

For data set [3], the system named is Saccharomyces cerevisiae ATCC 4126. Briefly: MIC, viable count method. The conditions noted are these: 48 hrs, heated garlic: 121° C. for 45 min. As for the experimental part:
as §1
(§2) Antimicrobial activity was measured for the garlic extract heated at 121° C. for 45 min of Example 1, the fresh garlic extract and the AITC solution which had been prepared in Comparative Examples. Conditions for the viable count method, the medium and initial number of microorganisms inoculated were the same as those described in the above Test Examples. The MIC was measured at 24 hrs or 48 hrs after incubating the bacteria or the yeasts, respectively.
(§3) Staphylococcus aureus B33, Escherichia coli B34, Enterobacter aerogenes B146, Leuconostoc mesenteroides LA10, Pediococcus pentosaceus LA3, Lactobacillus plantarum LA97, Pichia membranifaciens Y20, Saccharomyces cerevisiae ATCC 4126 and Candida utilis ATCC 42416 used in this Test Example were kindly provided from Dr. Henry P. Fleming at the Food Fermentation Laboratory of the North Carolina State University in USA. Candida albicans HY1 was separated from an infant with oral candidiasis. In addition, Candida albicans KCTC 7121 and 7965 were purchased from Korean Collection for Type Cultures (KCTC) and Zygosaccharomyces bisporus KCCM 50168, Zygosaccharomyces rouxii (soya) KCCM 11300, Zygosaccharomyces rouxii KCCM 11303, Zygosaccharomyces rouxii (sake) KCCM 50523 and Zygosaccharomyces rouxii (gracilis) KCCM 50546 were obtained from KCCM (Korean Culture Center of Microorganisms).

Data set [4] relates to Pichia membranefaciens Y20. Put plainly: MIC, viable count method. Conditions: 48 hrs, heated garlic: 121° C. for 45 min. Here is the method:
as §1, §2, §3

Data set [5] has as its system Candida albicans (Clinical). Put plainly: MIC, viable count method. The conditions noted are these: 48 hrs, heated garlic: 121° C. for 45 min. Here is the method:
as §1, §2, §3

Data set [6] deals with Candida albicans KCTC 7121. Put plainly: MIC, viable count method. Conditions: 48 hrs, heated garlic: 121° C. for 45 min. Here is the method:
as §1, §2, §3

The test system of another data set is Escherichia coli B34. Put plainly: MIC, viable count method. The conditions noted are these: 24 hrs, heated garlic: 121° C. for 45 min. As for the experimental part:
as §1, §2, §3

In data set [7] the test system is Lactobacillus plantarum LA97. Put plainly: MIC, viable count method. Conditions: 24 hrs, heated garlic: 121° C. for 45 min. Here is the method:
as §1, §2, §3

Data set [8] relates to Candida utilis ATCC 42416. Briefly: MIC, viable count method. Conditions: 48 hrs, heated garlic: 121° C. for 45 min. Here is the method:
as §1, §2, §3

The subject of data set [9] is Zygosaccharomyces rouxii KCCM 50523. Put plainly: MIC, viable count method. The conditions noted are these: 48 hrs, heated garlic: 121° C. for 45 min. Here is the method: as §1, §2, §3
For data set [10], the system named is Zygosaccharomyces bisporus KCCM 50168. Put plainly: MIC, viable count method. Conditions: 48 hrs, heated garlic: 121° C. for 45 min. As for the experimental part:
as §1, §2, §3

Data set [11] concerns Zygosaccharomyces rouxii KCCM 11303. Put plainly: MIC, viable count method. The conditions noted are these: 48 hrs, heated garlic: 121° C. for 45 min. As for the experimental part:
as §1, §2, §3

In data set [12] the test system is Pediococcus pentosaceus LA3. Briefly: MIC, viable count method. The conditions noted are these: 24 hrs, heated garlic: 121° C. for 45 min. Here is the method: as §1, §2, §3
Data set [13] relates to Staphylococcus aureus B33. Put plainly: MIC, viable count method. The conditions noted are these: 24 hrs, heated garlic: 121° C. for 45 min. Here is the method: as §1, §2, §3
For data set [14], the system named is Enterobacter aerogenes B146. Put plainly: MIC, viable count method. Conditions: 24 hrs, heated garlic: 121° C. for 45 min. As for the experimental part:
as §1, §2, §3

Data set [15] concerns Leuconostoc mesenteroides LA10. Put plainly: MIC, viable count method. The conditions noted are these: 24 hrs, heated garlic: 121° C. for 45 min. As for the experimental part: as §1, §2, §3
Data set [16] relates to Zygosaccharomyces rouxii KCCM 11300. Put plainly: MIC, viable count method. Conditions: 48 hrs, heated garlic: 121° C. for 45 min. As for the experimental part:
as §1, §2, §3

The subject of data set [17] is Candida albicans KCTC 7965. Briefly: MIC, viable count method. The conditions noted are these: 48 hrs, heated garlic: 121° C. for 45 min. As for the experimental part: as §1, §2, §3
In data set [18] the test system is Zygosaccharomyces rouxii KCCM 50546. Briefly: MIC, viable count method. The conditions noted are these: 48 hrs, heated garlic: 121° C. for 45 min. Here is the method: as §1, §2, §3

Molecules are shown by their SMILES.

Consider `C/C=C/C=C/C(=O)[O-].[K+]` [potassium sorbate], for which, in data set [1] (pH 4 to 9, heated garlic extract (121° C., 120 min) 0.5 volume %, potassium sorbate 0.1 weight %), the “antimicrobial activity, dependence on pH” value was “significantly affected by pH”. For the same compound, in [1] (pH 5, 0.1 weight %), the “antimicrobial activity at pH 5” value is listed as “high”. For the same compound, the “antimicrobial activity at pH 6” value in [1] (pH 6, 0.1 weight %) is on record as “dropped to almost zero”.

For `C=CCN=C=S` [AITC solution, allyl isothiocyanate], in [2], the “stability of antifungal activity over storage time” value was “very unstable”. The MIC in data set [3] worked out at 0.0002 ± 0.0001 volume %; in [4], 0.0001 ± 0 volume %; in data set [5], 0.0003 ± 0 volume %; in data set [6] it was 0.0003 ± 0.0001 volume %; in the data set on Escherichia coli B34, 0.01 ± 0.0006 volume %; in data set [7], 0.02 ± 0 volume %. Also, the MIC in [8] was 0.0004 ± 0.0001 volume %; in data set [9], 0.0005 ± 0.0001 volume %; in data set [10] it was 0.0002 ± 0 volume %; in [11], 0.0004 ± 0.0001 volume %; in data set [12], 0.02 ± 0.0012 volume %; in data set [13] it was 0.015 ± 0.0006 volume %. Further, the MIC in data set [14] was found to be 0.02 ± 0.002 volume %; in data set [15] it was 0.04 ± 0.0023 volume %; in [16], 0.0002 ± 0 volume %; in data set [17], 0.0004 ± 0.0001 volume %; in [18], 0.0004 ± 0.0001 volume %.

Source of the values: patent US20050031715A1, “Natural preservative comprising heated garlic extract and method for preparing thereof” (SEJONG UNIVERSITY, priority 2003, published 2005).
